Experimental data published in the NIST ThermoML archive (doi:10.1016/j.jct.2014.08.023).
Numbers after ± are expanded uncertainties.

Settings: Liquid, Vibrating tube method

CC(C)OC(C)C [diisopropyl ether]
mass density [kg/m3]
Settings	293.15 K	298.15 K	313.15 K	333.15 K	353.19 K	373.24 K	393.29 K
100 kPa	723.5 ± 0.7	718.3 ± 0.7	702.4 ± 0.7	680.4 ± 0.7	–	–	–
1000 kPa	724.3 ± 0.7	719.5 ± 0.7	703.7 ± 0.7	682 ± 0.7	659.5 ± 0.7	635.5 ± 0.7	609.5 ± 0.7
5000 kPa	729.1 ± 0.7	724.5 ± 0.7	709.3 ± 0.7	688.8 ± 0.7	667.5 ± 0.7	645.5 ± 0.7	622.1 ± 0.8
10000 kPa	734.5 ± 0.7	730.2 ± 0.7	715.7 ± 0.7	696.3 ± 0.8	676.4 ± 0.8	656.1 ± 0.8	634.9 ± 0.8
15000 kPa	739.6 ± 0.8	735.6 ± 0.8	721.6 ± 0.8	703.1 ± 0.8	684.4 ± 0.8	665.3 ± 0.8	645.7 ± 0.8
20000 kPa	744.5 ± 0.8	740.5 ± 0.8	727.1 ± 0.8	709.3 ± 0.8	691.5 ± 0.8	673.4 ± 0.8	655.1 ± 0.8
25000 kPa	749 ± 0.8	745.2 ± 0.8	732 ± 0.8	715 ± 0.8	698 ± 0.8	680.8 ± 0.8	663.4 ± 0.8
30000 kPa	753.3 ± 0.8	749.6 ± 0.8	737.1 ± 0.8	720.4 ± 0.8	704 ± 0.8	687.6 ± 0.9	671 ± 0.9
35000 kPa	757.4 ± 0.8	753.7 ± 0.8	741.5 ± 0.8	725.5 ± 0.9	709.6 ± 0.9	693.8 ± 0.9	677.9 ± 0.9
40000 kPa	761.3 ± 0.8	757.7 ± 0.9	745.8 ± 0.9	730.2 ± 0.9	714.8 ± 0.9	699.6 ± 0.9	684.3 ± 0.9
45000 kPa	765 ± 0.9	761.6 ± 0.9	749.9 ± 0.9	734.7 ± 0.9	719.7 ± 0.9	705 ± 0.9	690.2 ± 1
50000 kPa	768.6 ± 0.9	765.2 ± 0.9	753.8 ± 0.9	739 ± 0.9	724.5 ± 0.9	710.1 ± 1	695.7 ± 1
55000 kPa	772.1 ± 0.9	768.7 ± 0.9	757.6 ± 0.9	743.1 ± 1	728.9 ± 1	714.9 ± 1	701 ± 1
60000 kPa	775.4 ± 0.9	772.1 ± 0.9	761.3 ± 1	747 ± 1	733.1 ± 1	719.5 ± 1	705.9 ± 1.1
65000 kPa	778.6 ± 1	775.4 ± 1	764.8 ± 1	750.8 ± 1	737.2 ± 1	723.9 ± 1.1	710.6 ± 1.1
70000 kPa	781.7 ± 1	778.5 ± 1	768.1 ± 1	754.3 ± 1	741.1 ± 1.1	728.1 ± 1.1	715.1 ± 1.1
80000 kPa	787.6 ± 1	784.5 ± 1	774.3 ± 1	761.2 ± 1.1	748.4 ± 1.1	735.9 ± 1.1	723.5 ± 1.2
90000 kPa	793.2 ± 1.1	790.3 ± 1.1	780.4 ± 1.1	767.7 ± 1.1	755.3 ± 1.2	743.2 ± 1.2	731.3 ± 1.2
100000 kPa	798.5 ± 1.1	795.6 ± 1.1	786 ± 1.1	773.6 ± 1.2	761.6 ± 1.2	750 ± 1.2	738.3 ± 1.3
110000 kPa	803.6 ± 1.1	800.8 ± 1.1	791.4 ± 1.2	779.3 ± 1.2	767.7 ± 1.3	756.3 ± 1.3	745.2 ± 1.3
120000 kPa	808.4 ± 1.2	805.6 ± 1.2	796.4 ± 1.2	784.6 ± 1.3	773.4 ± 1.3	762.3 ± 1.3	751.3 ± 1.4
130000 kPa	812.9 ± 1.2	810.3 ± 1.2	801.3 ± 1.3	789.8 ± 1.3	778.8 ± 1.3	768 ± 1.4	757.4 ± 1.4
140000 kPa	817.3 ± 1.2	814.6 ± 1.3	806 ± 1.3	794.7 ± 1.3	784 ± 1.4	773.3 ± 1.4	763 ± 1.5
